# Laboratory results reported in patent US10112941B2, “Tricyclic compounds as anticancer agents” (BRISTOL-MYERS SQUIBB COMPANY, priority 2013, dated 2018).
# Biological target: BRD4 (Homo sapiens, UniProt O60885)
# Assay: Time Resolved Fluorescence Resonance Energy Transfer (TR-FRET) binding assay, BRD4
# Conditions: one of the FRET assays described; read-out: FRET BRD4 IC50
row,SMILES,IC50
1,"Cc1noc(C)c1-c1cnc2c3ccc(C(C)(C)O)cc3n(C(c3c(F)cccc3F)C3CCOCC3)c2c1 (single isomer, unassigned) [Example 143, 2-{5-[(2,6-Difluorophenyl)(oxan-4-yl)methyl]-3-(dimethyl-1,2-oxazol-4-yl)-5H-pyrido[3,2-b]indol-7-yl}propan-2-ol]",< 5 nM
2,"Cc1noc(C)c1-c1cnc2c3ccc(C(C)(C)O)cc3n(C(c3c(F)cccc3F)C3CCOCC3)c2c1 (single isomer, unassigned) [Example 144, 2-{5-[(2,6-Difluorophenyl)(oxan-4-yl)methyl]-3-(dimethyl-1,2-oxazol-4-yl)-5H-pyrido[3,2-b]indol-7-yl}propan-2-ol]",< 5 nM
3,"Cc1noc(C)c1-c1cnc2c3ccc(C(C)(C)O)cc3n(C(c3cccc(F)c3F)C3CCOCC3)c2c1 (single isomer, unassigned) [Example 145, 2-{5-[(2,3-Difluorophenyl)(oxan-4-yl)methyl]-3-(dimethyl-1,2-oxazol-4-yl)-5H-pyrido[3,2-b]indol-7-yl}propan-2-ol]",< 5 nM
4,"Cc1noc(C)c1-c1cnc2c3ccc(C(C)(C)O)cc3n(C(c3cccc(F)c3F)C3CCOCC3)c2c1 (single isomer, unassigned) [Example 146, 2-{5-[(2,3-Difluorophenyl)(oxan-4-yl)methyl]-3-(dimethyl-1,2-oxazol-4-yl)-5H-pyrido[3,2-b]indol-7-yl}propan-2-ol]",< 5 nM
5,"Cc1noc(C)c1-c1cnc2c3ccc(C(C)(C)O)cc3n(C(c3cccc(F)c3)C3CCOCC3)c2c1 (single isomer, unassigned) [Example 147, 2-[3-(Dimethyl-1,2-oxazol-4-yl)-5-[(3-fluorophenyl)(oxan-4-yl)methyl]-5H-pyrido[3,2-b]indol-7-yl]propan-2-ol]",< 5 nM
6,"Cc1noc(C)c1-c1cnc2c3ccc(C(C)(C)O)cc3n(C(c3cccc(F)c3)C3CCOCC3)c2c1 (single isomer, unassigned) [Example 148, 2-[3-(Dimethyl-1,2-oxazol-4-yl)-5-[(3-fluorophenyl)(oxan-4-yl)methyl]-5H-pyrido[3,2-b]indol-7-yl]propan-2-ol]",< 25 nM
7,"Cc1noc(C)c1-c1cnc2c3ccc(C(C)(C)O)cc3n(C(c3ccccc3F)C3CCOCC3)c2c1 (single isomer, unassigned) [Example 149, 2-[3-(Dimethyl-1,2-oxazol-4-yl)-5-[(2-fluorophenyl)(oxan-4-yl)methyl]-5H-pyrido[3,2-b]indol-7-yl]propan-2-ol]",< 5 nM
8,"Cc1noc(C)c1-c1cnc2c3ccc(C(C)(C)O)cc3n(C(c3ccccc3F)C3CCOCC3)c2c1 (single isomer, unassigned) [Example 150, 2-[3-(Dimethyl-1,2-oxazol-4-yl)-5-[(2-fluorophenyl)(oxan-4-yl)methyl]-5H-pyrido[3,2-b]indol-7-yl]propan-2-ol]",< 5 nM
9,"Cc1noc(C)c1-c1cnc2c3ccc(S(C)(=O)=O)cc3n(C(c3ccccc3)C3CCC(F)(F)CC3)c2c1 (single isomer, unassigned) [Example 154, 4-{5-[(4,4-Difluorocyclohexyl)(phenyl)methyl]-7-methanesulfonyl-5H-pyrido[3,2-b]indol-3-yl}-3,5-dimethyl-1,2-oxazole]",< 25 nM
10,"Cc1noc(C)c1-c1cnc2c3ccc(S(C)(=O)=O)cc3n(C(c3ccccc3)C3CCC(F)(F)CC3)c2c1 (single isomer, unassigned) [Example 155, 4-{5-[(4,4-Difluorocyclohexyl)(phenyl)methyl]-7-methanesulfonyl-5H-pyrido[3,2-b]indol-3-yl}-3,5-dimethyl-1,2-oxazole]",< 25 nM
11,"Cc1nnn(C)c1-c1cnc2c3ccc(S(C)(=O)=O)cc3n(C(c3ccccc3)C3CCC(F)(F)CC3)c2c1 (single isomer, unassigned) [Example 156, 5-{5-[(4,4-Difluorocyclohexyl)(phenyl)methyl]-7-methanesulfonyl-5H-pyrido[3,2-b]indol-3-yl}-1,4-dimethyl-1H-1,2,3-triazole]",< 5 nM
12,"Cc1nnn(C)c1-c1cnc2c3ccc(S(C)(=O)=O)cc3n(C(c3ccccc3)C3CCC(F)(F)CC3)c2c1 (single isomer, unassigned) [Example 157, 5-{5-[(4,4-Difluorocyclohexyl)(phenyl)methyl]-7-methanesulfonyl-5H-pyrido[3,2-b]indol-3-yl}-1,4-dimethyl-1H-1,2,3-triazole]",< 5 nM
13,"[2H]C([2H])([2H])c1nnn(C)c1-c1cnc2c3c(S(C)(=O)=O)cc(F)c(F)c3n(C(c3ccccc3)C3CCC(F)(F)CC3)c2c1 (single isomer, unassigned) [Example 164, 5-{5-[(4,4-Difluorocyclohexyl)(phenyl)methyl]-6,7-difluoro-9-methanesulfonyl-5H-pyrido[3,2-b]indol-3-yl}-4-(^2H3)methyl-1-methyl-1H-1,2,3-triazole]",< 5 nM
14,"Cc1nnn(C)c1-c1cnc2c3ccc(C(C)(C)N)cc3n(C(c3ccccc3)C3CCOCC3)c2c1 (single isomer, unassigned) [Example 165, 2-[3-(Dimethyl-1H-1,2,3-triazol-5-yl)-5-[oxan-4-yl(phenyl)methyl]-5H-pyrido[3,2-b]indol-7-yl]propan-2-amine]",< 5 nM
15,"Cc1nnn(C)c1-c1cnc2c3ccc(C(C)(C)N)cc3n(C(c3ccccc3)C3CCOCC3)c2c1 (single isomer, unassigned) [Example 166, 2-[3-(Dimethyl-1H-1,2,3-triazol-5-yl)-5-[oxan-4-yl(phenyl)methyl]-5H-pyrido[3,2-b]indol-7-yl]propan-2-amine]",< 5 nM
16,"Cc1nnn(C)c1-c1cnc2c3ccc(C(C)(C)NC(=O)CN(C)C)cc3n(C(c3ccccc3)C3CCOCC3)c2c1 (single isomer, unassigned) [Example 167, N-{2-[3-(Dimethyl-1H-1,2,3-triazol-5-yl)-5-[oxan-4-yl(phenyl)methyl]-5H-pyrido[3,2-b]indol-7-yl]propan-2-yl}-2-(dimethylamino)acetamide]",< 5 nM
17,"Cc1nnn(C)c1-c1cnc2c3ccc(C(C)(C)NC(=O)CN(C)C)cc3n(C(c3ccccc3)C3CCOCC3)c2c1 (single isomer, unassigned) [Example 168, N-{2-[3-(Dimethyl-1H-1,2,3-triazol-5-yl)-5-[oxan-4-yl(phenyl)methyl]-5H-pyrido[3,2-b]indol-7-yl]propan-2-yl}-2-(dimethylamino)acetamide]",< 5 nM
18,"Cc1sc(=O)n(C)c1-c1cnc2c3ccc(C(C)(C)O)cc3n(C(c3ccccc3)C3CCOCC3)c2c1 (single isomer, unassigned) [Example 169, 4-[7-(2-Hydroxypropan-2-yl)-5-[oxan-4-yl(phenyl)methyl]-5H-pyrido[3,2-b]indol-3-yl]-3,5-dimethyl-2,3-dihydro-1,3-thiazol-2-one]",< 5 nM
19,"Cc1sc(=O)n(C)c1-c1cnc2c3ccc(C(C)(C)O)cc3n(C(c3ccccc3)C3CCOCC3)c2c1 (single isomer, unassigned) [Example 170, 4-[7-(2-Hydroxypropan-2-yl)-5-[oxan-4-yl(phenyl)methyl]-5H-pyrido[3,2-b]indol-3-yl]-3,5-dimethyl-2,3-dihydro-1,3-thiazol-2-one]",< 1500 nM
20,"[2H]C([2H])([2H])c1nnn(C)c1-c1cnc2c3c(F)cc(S(C)(=O)=O)cc3n(C(c3ccccc3)C3CCC(F)(F)CC3)c2c1 (single isomer, unassigned) [Example 199, 5-{5-[(4,4-Difluorocyclohexyl)(phenyl)methyl]-9-fluoro-7-methanesulfonyl-5H-pyrido[3,2-b]indol-3-yl}-4-(^2H3)methyl-1-methyl-1H-1,2,3-triazole]",< 5 nM
21,"[2H]C([2H])([2H])c1nnn(C)c1-c1cnc2c3c(F)cc(S(C)(=O)=O)cc3n(C(c3ccccc3)C3CCC(F)(F)CC3)c2c1 (single isomer, unassigned) [Example 200, 5-{5-[(4,4-Difluorocyclohexyl)(phenyl)methyl]-9-fluoro-7-methanesulfonyl-5H-pyrido[3,2-b]indol-3-yl}-4-(^2H3)methyl-1-methyl-1H-1,2,3-triazole]",< 5 nM
22,"Cc1nnn(C)c1-c1cnc2c3ccc(C(C)(C)O)cc3n(C(c3ccccc3)C3CCC(F)(F)CC3)c2c1 (single isomer, unassigned) [Example 205]",< 5 nM
23,"Cc1nnn(C)c1-c1cnc2c3ccc(C(C)(C)O)cc3n(C(c3ccccc3)C3CCC(F)(F)CC3)c2c1 (single isomer, unassigned) [Example 206]",< 5 nM
24,"[2H]C([2H])([2H])c1nnn(C)c1-c1cnc2c3c(OC)cc(S(C)(=O)=O)cc3n(C(c3ncccc3F)C3CCC(F)(F)CC3)c2c1 (single isomer, unassigned) [Example 213, 2-[(4,4-Difluorocyclohexyl)({7-methanesulfonyl-9-methoxy-3-[4-(^2H3)methyl-1-methyl-1H-1,2,3-triazol-5-yl]-5H-pyrido[3,2-b]indol-5-yl})methyl]-3-fluoropyridine]",< 5 nM
25,"[2H]C([2H])([2H])c1nnn(C)c1-c1cnc2c3c(OC)cc(S(C)(=O)=O)cc3n(C(c3ncccc3F)C3CCC(F)(F)CC3)c2c1 (single isomer, unassigned) [Example 214, 2-[(4,4-Difluorocyclohexyl)({7-methanesulfonyl-9-methoxy-3-[4-(^2H3)methyl-1-methyl-1H-1,2,3-triazol-5-yl]-5H-pyrido[3,2-b]indol-5-yl})methyl]-3-fluoropyridine]",< 5 nM
26,"COc1ccc(C(C2CCOCC2)n2c3cc(C(C)(C)O)ccc3c3ncc(-c4c(C)nnn4C)cc32)cc1 (single isomer, unassigned) [Example 249, 2-[3-(Dimethyl-1H-1,2,3-triazol-5-yl)-5-[(4-methoxyphenyl)(oxan-4-yl)methyl]-5H-pyrido[3,2-b]indol-7-yl]propan-2-ol]",< 5 nM
27,"COc1ccc(C(C2CCOCC2)n2c3cc(C(C)(C)O)ccc3c3ncc(-c4c(C)nnn4C)cc32)cc1 (single isomer, unassigned) [Example 250, 2-[3-(Dimethyl-1H-1,2,3-triazol-5-yl)-5-[(4-methoxyphenyl)(oxan-4-yl)methyl]-5H-pyrido[3,2-b]indol-7-yl]propan-2-ol]",< 25 nM
